US20150306096A1, “8'-HYDROXY-DIHYDROERGOTAMINE COMPOUNDS AND COMPOSITIONS” (MAP Pharmaceuticals, Inc., priority 2012, published 2015)

Target: T1, Calcitonin (CGRP) (Homo sapiens, UniProt O60894+Q16602)
T1 construct: expressed in transfected cells; host or cells: CHO-K1 with apoaequorin (CHO-AEQ)
Assay: Aequorin assay
Type: cell-based
Conditions: CGRP receptor
Method: Additional receptor agonist/agonist activity assessments were performed using the 8′-OH DHE test compound. Table 12 contains a summary of the cell lines (CHO-K1/HEK293 transfected with relevant human receptor) and the assays performed to detect any agonist or antagonist activity.
Aequorin assays were conducted to monitor activity for 8′-OH DHE against the receptors indicated in Table 12 above (except for mGlu3 and mGlu5). CHO-K1 cells co-expressing mitochondrial apoaequorin and the recombinant human receptor of interest were grown to mid-log phase in culture media without antibiotics and then detached with PBS-EDTA, centrifuged and resuspended in assay buffer (DMEMHAM's F12 with HEPES, without phenol red+0.1% BSA, protease free) at a concentration of 1×10^6 cell/mL. Cells were incubated at RT for at least 4 hours with coelenterazine h. […]
50 μL of the cell suspension was mixed with 50 μL of test or reference agonist in a 96-well plate. The resulting emission of light was recorded using Hamamatsu Functional Drug Screening System 6000 (FDSS 6000) luminometer. […] The resulting emission of light was recorded using the FDSS 6000 luminometer. To standardize the emission of recorded light (and determine of the ‘100% signal’) across plates and across different experiments, some wells contained 100 μM digitonin or a saturating concentration of ATP (20 μM).

T1 sequence (Q16602 23-461): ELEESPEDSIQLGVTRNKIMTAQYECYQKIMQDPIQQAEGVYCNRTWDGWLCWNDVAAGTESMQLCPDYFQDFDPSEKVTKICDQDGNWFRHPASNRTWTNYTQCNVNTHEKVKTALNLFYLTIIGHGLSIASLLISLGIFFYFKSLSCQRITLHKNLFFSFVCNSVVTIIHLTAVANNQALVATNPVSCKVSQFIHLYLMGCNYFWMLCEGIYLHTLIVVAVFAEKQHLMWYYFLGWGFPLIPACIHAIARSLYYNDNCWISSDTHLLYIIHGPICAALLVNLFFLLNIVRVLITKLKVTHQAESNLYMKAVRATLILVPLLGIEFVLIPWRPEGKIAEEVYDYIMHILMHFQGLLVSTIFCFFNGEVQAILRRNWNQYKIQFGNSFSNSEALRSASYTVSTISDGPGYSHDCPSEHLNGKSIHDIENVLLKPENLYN
T1 sequence (O60894 27-148 partner): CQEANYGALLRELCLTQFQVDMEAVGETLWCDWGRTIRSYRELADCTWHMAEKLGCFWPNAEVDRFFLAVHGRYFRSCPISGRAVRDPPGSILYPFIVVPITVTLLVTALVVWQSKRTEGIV

`CN1C[C@H](C(=O)N[C@]2(C)O[C@@]3(O)[C@@H]4CCC(O)N4C(=O)[C@H](Cc4ccccc4)N3C2=O)C[C@@H]2c3cccc4[nH]cc(c34)C[C@H]21` (stereo partly shown) [8′-OH DHE, 8′-Hydroxy-Dihydroergotamine] was tested, and the “Activity (Agonism: EC50; Antagonism: IC50)” value was “Inactive”.
